The results in this text go back to patent US20230416205A1, “COMPOUNDS, COMPOSITIONS, AND METHODS” (Denali Therapeutics Inc, priority 2020, published 2023).

Each structure is given as a SMILES string. Like-named read-outs stand apart in the source and are kept apart here.

The test relates to NLRP3. Nature of the test: IL-1β secretion assay in PMA-differentiated, LPS/nigericin-stimulated THP-1 cells (384-well, ELISA read-out). The class given is cell-based, human. The conditions noted are these: Homo sapiens. In short, it runs like this:
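THP-1 cells differentiated with PMA (5 ng/mL, 40 h), primed in serum-free medium with 25 ng/mL LPS for 2 h, treated with compounds 1 h (0.5% DMSO), then stimulated with nigericin for 2 h at 37 °C. Supernatant IL-1β measured by ELISA; responses normalized to LPS+5 μM nigericin and LPS-only controls.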

The mark [1] stands for this setting: THP-1, IL-1β secretion, PMA-differentiated THP-1 cells, LPS then nigericin stimulation, ELISA read at 450 nm, read-out: Activity.
Setting [2] is: THP-1, Table 4, IL-1β secretion, LPS/nigericin-stimulated THP-1 cells, read-out: IC50.

Regarding `O=C(CN1CC2(CC2)c2cc(Br)ccc2C1=O)Nc1ccc2ncccc2c1` [Example 130, 2-(6-bromo-1-oxospiro[3H-isoquinoline-4,1′-cyclopropane]-2-yl)-N-quinolin-6-ylacetamide], the IC50 by setting is: under setting [1], less than 10 µM; under setting [2], 1.23 µM.
The matching figures for `O=C(CN1CC2(CC2)c2cc(Br)ccc2C1=O)Nc1cnc2ccccc2c1` [Example 131, 2-(6-bromo-1-oxospiro[3H-isoquinoline-4,1′-cyclopropane]-2-yl)-N-quinolin-3-ylacetamide]: less than 10 µM and 7.7 µM.
As to `O=C(CN1CC2(CC2)c2cc(Br)ccc2C1=O)NCC(O)c1ccc(F)cc1` (stereo not drawn) [Example 132, 2-(6-bromo-1-oxospiro[3H-isoquinoline-4,1′-cyclopropane]-2-yl)-N-[2-(4-fluorophenyl)-2-hydroxyethyl]acetamide], the IC50 is more than 15 µM under setting [1] and 29.7 µM under setting [2].
The matching figures for `O=C(CN1CC2(CC2)c2cc(Br)ccc2C1=O)NCCC(F)(F)F` [Example 133, 2-(6-bromo-1-oxospiro[3H-isoquinoline-4,1′-cyclopropane]-2-yl)-N-(3,3,3-trifluoropropyl)acetamide]: less than 10 µM and 9.24 µM.
In the case of `CC(C)(C#N)NC(=O)CN1CC2(CC2)c2cc(Br)ccc2C1=O` [Example 134, 2-(6-bromo-1-oxospiro[3H-isoquinoline-4,1′-cyclopropane]-2-yl)-N-(2-cyanopropan-2-yl)acetamide], the IC50 under setting [1] was more than 15 µM.
Take `O=C(CN1CC2(CC2)c2cc(Br)ccc2C1=O)Nc1ccc2c(c1)CCO2` [Example 135, 2-(6-bromo-1-oxospiro[3H-isoquinoline-4,1′-cyclopropane]-2-yl)-N-(2,3-dihydro-1-benzofuran-5-yl)acetamide]: the IC50 is less than 10 µM under setting [1] and 1.22 µM under setting [2].
Consider `O=C(CN1CC2(CC2)c2cc(Br)ccc2C1=O)Nc1ccc2cnccc2c1` [Example 136, 2-(6-bromo-1-oxospiro[3H-isoquinoline-4,1′-cyclopropane]-2-yl)-N-isoquinolin-6-ylacetamide], for which the IC50 under setting [1] is less than 10 µM.
As to `CS(=O)(=O)NCCNC(=O)CN1CC2(CC2)c2cc(Br)ccc2C1=O` [Example 137, 2-(6-bromo-1-oxospiro[3H-isoquinoline-4,1′-cyclopropane]-2-yl)-N-[2-(methanesulfonamido)ethyl]acetamide], the IC50 is, setting by setting: under setting [1], more than 15 µM; under setting [2], 21.9 µM.
The matching figures for `COCCn1cc(NC(=O)CN2CC3(CC3)c3cc(Br)ccc3C2=O)cn1` [Example 138, 2-(6-bromo-1-oxospiro[3H-isoquinoline-4,1′-cyclopropane]-2-yl)-N-[1-(2-methoxyethyl)pyrazol-4-yl]acetamide]: more than 15 µM and 20.5 µM.
The matching figures for `CS(=O)(=O)CCNC(=O)CN1CC2(CC2)c2cc(Br)ccc2C1=O` [Example 139, 2-(6-bromo-1-oxospiro[3H-isoquinoline-4,1′-cyclopropane]-2-yl)-N-(2-methylsulfonylethyl)acetamide]: more than 15 µM and 26.4 µM.
The matching figures for `O=C(CN1CC2(CC2)c2cc(Br)ccc2C1=O)Nc1ccc2ncsc2c1` [Example 140, N-(1,3-benzothiazol-6-yl)-2-(6-bromo-1-oxospiro[3H-isoquinoline-4,1′-cyclopropane]-2-yl)acetamide]: less than 10 µM and 0.889 µM.
In the case of `Cn1ncc2cc(NC(=O)CN3CC4(CC4)c4cc(Br)ccc4C3=O)ccc21` [Example 141, 2-(6-bromo-1-oxospiro[3H-isoquinoline-4,1′-cyclopropane]-2-yl)-N-(1-methylindazol-5-yl)acetamide], the IC50 is, setting by setting: under setting [1], less than 10 µM; under setting [2], 1.23 µM.
The matching figures for `Cc1nc(-c2cccc(NC(=O)CN3CC4(CC4)c4cc(Br)ccc4C3=O)c2)cs1` [Example 142, 2-(6-bromo-1-oxospiro[3H-isoquinoline-4,1′-cyclopropane]-2-yl)-N-[3-(2-methyl-1,3-thiazol-4-yl)phenyl]acetamide]: less than 10 µM and 1.78 µM.
In the same order, the values of `Cc1nc2ccc(NC(=O)CN3CC4(CC4)c4cc(Br)ccc4C3=O)cc2s1` [Example 143, 2-(6-bromo-1-oxospiro[3H-isoquinoline-4,1′-cyclopropane]-2-yl)-N-(2-methyl-1,3-benzothiazol-6-yl)acetamide] are less than 10 µM and 1.41 µM.
Consider `Cc1cc(NC(=O)CN2CC3(CC3)c3cc(Br)ccc3C2=O)n(C)n1` [Example 144, 2-(6-bromo-1-oxospiro[3H-isoquinoline-4,1′-cyclopropane]-2-yl)-N-(2,5-dimethylpyrazol-3-yl)acetamide], for which the IC50 is, setting by setting: under setting [1], less than 10 µM; under setting [2], 3.91 µM.
In the same order, the values of `O=C(CN1CC2(CC2)c2cc(Br)ccc2C1=O)Nc1nc2ccccc2[nH]1` [Example 145, N-(1H-benzimidazol-2-yl)-2-(6-bromo-1-oxospiro[3H-isoquinoline-4,1′-cyclopropane]-2-yl)acetamide] are less than 10 µM and 2.66 µM.
In the same order, the values of `O=C(CN1CC2(CC2)c2cc(Br)ccc2C1=O)Nc1ccc2scnc2c1` [Example 146, N-(1,3-benzothiazol-5-yl)-2-(6-bromo-1-oxospiro[3H-isoquinoline-4,1′-cyclopropane]-2-yl)acetamide] are less than 10 µM and 2.74 µM.
In the same order, the values of `Cn1cnc2cc(NC(=O)CN3CC4(CC4)c4cc(Br)ccc4C3=O)ccc21` [Example 147, 2-(6-bromo-1-oxospiro[3H-isoquinoline-4,1′-cyclopropane]-2-yl)-N-(1-methylbenzimidazol-5-yl)acetamide] are less than 10 µM and 8.12 µM.
As to `O=C(CN1CC2(CC2)c2cc(Br)ccc2C1=O)Nc1cccc2ccncc12` [Example 148, 2-(6-bromo-1-oxospiro[3H-isoquinoline-4,1′-cyclopropane]-2-yl)-N-isoquinolin-8-ylacetamide], the IC50 is less than 10 µM under setting [1] and 1.79 µM under setting [2].
As to `Cc1cc(NC(=O)CN2CC3(CC3)c3cc(Br)ccc3C2=O)n(-c2ccccc2)n1` [Example 149, 2-(6-bromo-1-oxospiro[3H-isoquinoline-4,1′-cyclopropane]-2-yl)-N-(5-methyl-2-phenylpyrazol-3-yl)acetamide], the IC50 runs as follows: under setting [1], less than 10 µM; under setting [2], 6.58 µM.
Turning to `Cc1cc(C)nc(NC(=O)CN2CC3(CC3)c3cc(Br)ccc3C2=O)c1` [Example 150, 2-(6-bromo-1-oxospiro[3H-isoquinoline-4,1′-cyclopropane]-2-yl)-N-(4,6-dimethylpyridin-2-yl)acetamide], the IC50 by setting is: under setting [1], less than 10 µM; under setting [2], 2.1 µM.
With `O=C(CN1CC2(CC2)c2cc(Br)ccc2C1=O)NCc1cccnc1C(F)(F)F` [Example 151], the IC50 is less than 10 µM under setting [1] and 9.06 µM under setting [2].
As to `O=C(CN1CC2(CC2)c2cc(Br)ccc2C1=O)Nc1ccnn1-c1ccccc1` [Example 152, 2-(6-bromo-1-oxospiro[3H-isoquinoline-4,1′-cyclopropane]-2-yl)-N-(2-phenylpyrazol-3-yl)acetamide], the IC50 under setting [1] is more than 15 µM and the IC50 under setting [2] was 21.6 µM.
In the same order, the values of `O=C(CN1CC2(CC2)c2cc(Br)ccc2C1=O)Nc1cncc2ccccc12` [Example 153, 2-(6-bromo-1-oxospiro[3H-isoquinoline-4,1′-cyclopropane]-2-yl)-N-isoquinolin-4-ylacetamide] are more than 15 µM and 32.9 µM.
The matching figures for `Cc1c[nH]c(=O)c(NC(=O)CN2CC3(CC3)c3cc(Br)ccc3C2=O)c1` [Example 154, 2-(6-bromo-1-oxospiro[3H-isoquinoline-4,1′-cyclopropane]-2-yl)-N-(5-methyl-2-oxo-1H-pyridin-3-yl)acetamide]: less than 10 µM and 4.33 µM.
The matching figures for `O=C(CN1CC2(CC2)c2cc(Br)ccc2C1=O)Nc1cccn2ccnc12` [Example 155, 2-(6-bromo-1-oxospiro[3H-isoquinoline-4,1′-cyclopropane]-2-yl)-N-imidazo[1,2-a]pyridin-8-ylacetamide]: less than 10 µM and 3.61 µM.
Consider `O=C(CN1CC2(CC2)c2cc(Br)ccc2C1=O)Nc1cnc2[nH]ccc2c1` [Example 156, 2-(6-bromo-1-oxospiro[3H-isoquinoline-4,1′-cyclopropane]-2-yl)-N-(1H-pyrrolo[2,3-b]pyridin-5-yl)acetamide], for which the IC50 reads like this: under setting [1], less than 10 µM; under setting [2], 4.39 µM.
In the case of `O=C(CN1CC2(CC2)c2cc(Br)ccc2C1=O)Nc1ccc2c(c1)OC(F)(F)O2` [Example 157, 2-(6-bromo-1-oxospiro[3H-isoquinoline-4,1′-cyclopropane]-2-yl)-N-(2,2-difluoro-1,3-benzodioxol-5-yl)acetamide], the IC50 is less than 10 µM under setting [1] and 9.98 µM under setting [2].
The matching figures for `O=C1c2ccc(Br)cc2C2(CC2)CN1CC(=O)N1CCc2cccnc21` [Example 158, 6-bromo-2-[2-(2,3-dihydropyrrolo[2,3-b]pyridin-1-yl)-2-oxoethyl]spiro[3H-isoquinoline-4,1′-cyclopropane]-1-one]: less than 10 µM and 5.9 µM.
In the same order, the values of `O=C(CN1CC2(CC2)c2cc(Br)ccc2C1=O)Nc1ccc2nncn2c1` [Example 159, 2-(6-bromo-1-oxospiro[3H-isoquinoline-4,1′-cyclopropane]-2-yl)-N-([1,2,4]triazolo[4,3-a]pyridin-6-yl)acetamide] are less than 10 µM and 1.77 µM.
Take `O=C(CN1CC2(CC2)c2cc(Br)ccc2C1=O)NC1(CO)CC1` [Example 160, 2-(6-bromo-1-oxospiro[3H-isoquinoline-4,1′-cyclopropane]-2-yl)-N-[1-(hydroxymethyl)cyclopropyl]acetamide]: the IC50 is less than 10 µM under setting [1] and 4.2 µM under setting [2].
